According to article PMC548510, “Inhibition of early steps in the lentiviral replication cycle by cathelicidin host defense peptides” (Retrovirology, 2005):
Read-outs that look alike come from different tables or passages of the source.

What was measured:
S. aureus = assay type: cell-based, Staphylococcus aureus (ATCC 25923); settings: radial diffusion, 1% agarose underlay, 10 mM sodium phosphate, 100 mM NaCl, pH 7.4, 3 individual experiments, quadruplicates
S. epidermidis = test: radial diffusion assay (growth inhibition); assay type: cell-based, Staphylococcus epidermidis (ATCC 12228); settings: 1% agarose underlay, 10 mM sodium phosphate, 100 mM NaCl, pH 7.4, 3 individual experiments, quadruplicates
E. faecalis = test: radial diffusion assay (growth inhibition); assay type: cell-based, Enterococcus faecalis (ATCC 29212); settings: 1% agarose underlay, 10 mM sodium phosphate, 100 mM NaCl, pH 7.4, 3 individual experiments, quadruplicates
P. aeruginosa = test: radial diffusion assay (growth inhibition); assay type: cell-based, Pseudomonas aeruginosa (ATCC 27853); settings: 1% agarose underlay, 10 mM sodium phosphate, 100 mM NaCl, pH 7.4, 3 individual experiments, quadruplicates, > 128 = not susceptible
E. coli = assay type: cell-based, Escherichia coli (ATCC 25922); settings: radial diffusion, 1% agarose underlay, 10 mM sodium phosphate, 100 mM NaCl, pH 7.4, 3 individual experiments, quadruplicates
A. baumanii = test: radial diffusion assay (growth inhibition); assay type: cell-based, Acinetobacter baumannii (ATCC 19606); settings: 1% agarose underlay, 10 mM sodium phosphate, 100 mM NaCl, pH 7.4, 3 individual experiments, quadruplicates, > 128 = not susceptible
P4CCR5 cells = test: BrdU incorporation cell proliferation assay; assay type: cell-based
Procedure: 293-Luc cells were plated in 96 well plates at a density of 2 × 10^3 cells / well. After 48 hours, 50 μl of MTT-solution (3 mg/ml) was added and incubated at 37° C under 5% CO2 for 1 hour. After this time medium was removed and 100 μl 0.04 N HCL + 10% SDS was used to dissolve the resulting blue formazan crystals in living cells. The optical density was determined at 550 nm. Each single value of the triplicates was expressed as percent of the mean of triplicates of control cultures infected with the same vector in the absence of HDPs and the mean and the standard deviation of the percent values was calculated for each triplicate. In addition the BrdU Cell proliferation ELISA with chemiluminescence detection (Roche Diagnostics GmbH, Mannheim, Germany) was performed. After 293-Luc cells or P4CCR5 cells were plated in 96 well plates at a density of 2 × 10^3 cells/well BrdU (5-bromo-2'-deoxyuridine) was added to the cells with a resulting concentration of 10 μM for the last 22 h of the incubation period. After removing the culture medium, the cells were fixed and DNA was denatured in one step with Fixdenat. Thereafter the cells were incubated with Anti-BrdU-POD for 1 h at room temperature. The chemiluminescence detection was measured after automatic injection of substrate solution with a microplate-luminometer (Orion, Berthold detection systems, Pforzheim, Germany).
To determine the effect of HDPs on vector infectivity and cell metabolism, 293A target cells were plated in triplicates into 96-well plates at 2 × 10^3 cells / well. […] The affect of HDPs on cell metabolism was determined in parallel by plating 293-Luc cells exactly the same way as 293A cells and the luciferase activity was determined after one (as a control to inhibition of adenoviral vector infectivity) or two (as a control of lentiviral infectivity) days of incubation with HDPs. For GFP-expressing vectors, vector titers were calculated from the number of GFP positive cells per well as previously described and the BrdU incorporation assay was used to monitor cytotoxic effects.

[1] = system: retroviral vector (pRV-172) containing the amphotropic MLV Env; assay type: cell-based
[2] = system: VSV-G pseudotyped lentiviral vector VLΔBH
[3] = system: HIV vectors containing the HIV-1 envelope; parameters: IC50, HIV-1 Env mediated vector entry, as printed in the picture of Figure 6 A, B: unit not given beside the values
wild type HIV-1 = system: wild type HIV-1; parameters: IC50, wild type HIV-1 infection, as printed in the picture of Figure 6 C, D: unit not given beside the values; settings: for IC50, wild type HIV-1 infection, as printed in the picture of Figure 6 C, D: P4CCR5 indicator cells, virus titer

Compound | M E C (minimal effectory concentration) (S. aureus) | M E C (minimal effectory concentration) (S. epidermidis) | M E C (minimal effectory concentration) (E. faecalis) | M E C (minimal effectory concentration) (P. aeruginosa) | M E C (minimal effectory concentration) (E. coli) | M E C (minimal effectory concentration) (A. baumanii) | concentration up to which inhibitory effects on cell proliferation were not observed (P4CCR5 cells) [µg/mL] | inhibitory effects on cell proliferation at the IC50 concentrations (25 μg/ml LL37, 14 μg/ml PG-1) (P4CCR5 cells) | dose dependent reduction in luciferase activity, MLV vector compared with lentiviral vector [1] | 50% inhibitory concentration (IC50) for the VLΔBH lentiviral vector [2] | specific inhibition of early steps of infection (lentiviral vector versus stably transduced target cells) [2] | IC50, HIV-1 Env mediated vector entry, as printed in the picture of Figure 6 A, B [3] | IC50, wild type HIV-1 infection, as printed in the picture of Figure 6 C, D (wild type HIV-1) | IC50 against wild type HIV-1 (wild type HIV-1; wild type) | dose dependent reduction in luciferase activity, MLV vector compared with lentiviral vector ([1]; 293A cells, triplicates of two independent experiments) | IC50, HIV-1 Env mediated vector entry, as printed in the picture of Figure 6 A, B ([3]; P4CCR5 cells, GFP vector titer) | IC50, inhibition of HIV vectors containing the HIV-1 envelope ([3]; vectors containing the envelope) [µg/mL]
CC(C)C[C@H](NC(=O)[C@H](CCCNC(=N)N)NC(=O)CNC(=O)CNC(=O)[C@@H](N)CCCNC(=N)N)C(=O)N[C@H]1CSSC[C@@H](C(=O)N[C@H](C(=O)NCC(=O)N[C@@H](CCCNC(=N)N)C(N)=O)C(C)C)NC(=O)[C@H](C(C)C)NC(=O)[C@@H]2CSSC[C@H](NC(=O)[C@H](Cc3ccc(O)cc3)NC1=O)C(=O)N[C@@H](CCCNC(=N)N)C(=O)N[C@@H](CCCNC(=N)N)C(=O)N[C@@H](CCCNC(=N)N)C(=O)N[C@@H](Cc1ccccc1)C(=O)N2 [Protegrin-1] | 0,91 ± 0,04 μg/ ml | 4,48 ± 0,2 μg/ ml | 4,46 ± 0,3 μg/ ml | 3,3 ± 1,1 μg/ ml | 2 ± 0,1 μg/ ml | 5,01 ± 0,2 μg/ ml | > 50 | only minimal inhibitory effects | very similar | ~16.8 µg/mL | Specific inhibition | 14.3 | 7.2 | below 10 μg/ml |  |  | 
Plectasin | 2,42 ± 0,4 μg/ ml | 8,20 ± 0,5 μg/ ml | 10,60 ± 0,7 μg/ ml | > 128 µg/mL | 79,10 ± 0,3 μg/ ml | > 128 µg/mL |  |  |  |  |  |  |  |  |  |  | 
CC1(C)S[C@@H]2[C@H](NC(=O)[C@H](N)c3ccccc3)C(=O)N2[C@H]1C(=O)O [Ampicillin] | 10,50 ± 0,2 μg/ ml |  | 28,85 ± 0,6 μg/ ml |  | 18,9 ± 0,9 μg/ ml |  |  |  |  |  |  |  |  |  |  |  | 
CC[C@H](C)[C@H](NC(=O)[C@H](CCCCN)NC(=O)[C@H](CCC(=O)O)NC(=O)[C@H](CCCCN)NC(=O)[C@H](CO)NC(=O)[C@H](CCCCN)NC(=O)[C@H](CCCNC(=N)N)NC(=O)[C@H](Cc1ccccc1)NC(=O)[C@H](Cc1ccccc1)NC(=O)[C@H](CC(=O)O)NC(=O)CNC(=O)[C@H](CC(C)C)NC(=O)[C@@H](N)CC(C)C)C(=O)NCC(=O)N[C@@H](CCCCN)C(=O)N[C@@H](CCC(=O)O)C(=O)N[C@@H](Cc1ccccc1)C(=O)N[C@@H](CCCCN)C(=O)N[C@@H](CCCNC(=N)N)C(=O)N[C@H](C(=O)N[C@H](C(=O)N[C@@H](CCC(N)=O)C(=O)N[C@@H](CCCNC(=N)N)C(=O)N[C@H](C(=O)N[C@@H](CCCCN)C(=O)N[C@@H](CC(=O)O)C(=O)N[C@@H](Cc1ccccc1)C(=O)N[C@@H](CC(C)C)C(=O)N[C@@H](CCCNC(=N)N)C(=O)N[C@@H](CC(N)=O)C(=O)N[C@@H](CC(C)C)C(=O)N[C@H](C(=O)N1CCC[C@H]1C(=O)N[C@@H](CCCNC(=N)N)C(=O)N[C@H](C(=O)N[C@@H](CCC(=O)O)C(=O)N[C@@H](CO)C(=O)O)[C@@H](C)O)C(C)C)[C@@H](C)CC)C(C)C)[C@@H](C)CC [LL37] | 4,74 ± 0,1 μg/ ml | 13,09 ± 0,6 μg/ ml | 13,61 ± 0,7 μg/ ml |  | 11,66 ± 1,5 μg/ ml | 13,13 ± 0,2 μg/ ml |  | only minimal inhibitory effects |  | approximately 30 μg/ml | Specific inhibition |  | 87.8 |  | very similar | 25.1 | 25
